pEC50: −log10 of the molar value.
Molecular target: Stimulator of interferon genes protein (Homo sapiens, UniProt Q86WV6)
Assay: Agonist activity at full length human STING expressed in HEK293T cotransfected with pISRE-luc and cGAS incubated for 24 hrs by steady-glo luciferase reporter gene assay
Assay type: cell-based

Chain of Stimulator of interferon genes protein (Q86WV6 whole entry): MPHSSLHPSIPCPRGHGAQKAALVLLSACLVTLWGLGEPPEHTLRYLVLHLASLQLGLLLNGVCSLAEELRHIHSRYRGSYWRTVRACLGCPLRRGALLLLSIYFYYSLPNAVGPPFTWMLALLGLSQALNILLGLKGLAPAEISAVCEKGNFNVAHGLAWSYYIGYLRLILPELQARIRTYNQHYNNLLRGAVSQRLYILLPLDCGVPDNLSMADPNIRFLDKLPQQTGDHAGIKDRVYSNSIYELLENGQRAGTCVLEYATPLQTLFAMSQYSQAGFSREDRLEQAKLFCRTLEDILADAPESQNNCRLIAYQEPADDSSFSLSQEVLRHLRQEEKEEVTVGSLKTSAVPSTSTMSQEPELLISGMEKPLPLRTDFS

CCCn1c(NC(=O)c2cc(C)nn2CC)nc2cc(C(N)=O)cc(OCN3CCOCC3)c21
pEC50: 6.00

Source: ChEMBL document CHEMBL4680367, “Targeting Stimulator of Interferon Genes (STING) for the Potential Treatment of Cancer and Infectious Diseases” (ACS Med Chem Lett, 2021)
